According to patent US4959368A, “Therapeutic agent for neurological diseases” (Mitsui Petrochemical Industries Ltd., priority 1986, dated 1990):
Like-named read-outs stand apart in the source and are kept apart here.

How the values were obtained:
[1] = system: mouse neuroblastoma cell line neuro-2a; test: Activity on neuro-2a, cells with outgrown neurites; format: cell-based
Method in brief: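 Mouse neuro-2a cells in DMEM with FCS exposed to compounds for 24 h (up to 6 concentrations, triplicate runs), glutaraldehyde-fixed and methylene blue-stained. Proportion of cells bearing a neurite at least twice the cell's long diameter counted microscopically over ≥200 cells.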

Acute toxicity, mouse = format: in vivo; conditions: in vivo, po, read-out: Presumed LD50
Method: (§1) The acute toxicity of the compounds of the invention was examined by the following method.
(§2) Male ddy-strain 5-week old mice and male Wistar-strain 8 week old rats, five per group, were used as experimental animals. Each of the compounds was dissolved in saline and administered perorally, and the toxicity of the compound was assessed 24 hours after the administration.

mice = test: Acute toxicity, mouse; format: in vivo; conditions: 24 hours
Method: as §1, §2

| SMILES | LD50 at 24 h (Acute toxicity, mouse; Table 6, p.o.) [mg/kg] | Number of dead animals/number of test animals (mice; Table 6, 300 mg/kg p.o.) | Number of dead animals/number of test animals (mice; Table 6, 500 mg/kg p.o.) | Number of dead animals/number of test animals (mice; Table 6, 1000 mg/kg p.o.) | LD50 at 24 h (Acute toxicity, mouse; Table 7, p.o.) [mg/kg] | Number of dead animals/number of test animals (mice; Table 7, 1000 mg/kg p.o.) | further results |
| --- | --- | --- | --- | --- | --- | --- | --- |
| CCOC(=O)c1cnc(N2CCNCC2)nc1N [Compound 120] | 550 to 1000 | 0/5 | 1/5 | 4/5 | – | – | Cells having neurites with a length at least twice the long diameter of cell/total number of cells ([1]; Table 3 Run No. 2, 0.1 mM, control 1.9 ± 0.9): 10.2 ± 3.7%; Cells having neurites with a length at least twice the long diameter of cell/total number of cells ([1]; Table 3 Run No. 10, 0.003 mM, control 1.7 ± 0.7): 2.6 ± 0.6%; Cells having neurites with a length at least twice the long diameter of cell/total number of cells ([1]; Table 3 Run No. 10, 0.1 mM, control 1.7 ± 0.7): 6.5 ± 1.7% |
| O=C1Cc2cnc(N3CCNCC3)nc2N1 [Compound 424] | – | – | – | – | > 1000 | 0/5 | Cells having neurites with a length at least twice the long diameter of cell/total number of cells ([1]; Table 3 first Run No. 5, 0.5 mM, no control given): 12.6 ± 1.1%; Cells having neurites with a length at least twice the long diameter of cell/total number of cells ([1]; Table 3 first Run No. 5, 1 mM, no control given): 27.1 ± 2.1% |
| O=c1[nH]ccc2nc(N3CCNCC3)ncc12 [Compound 701] | 300 to 550 | 0/5 | 3/5 | 5/5 | – | – | Cells having neurites with a length at least twice the long diameter of cell/total number of cells ([1]; Table 3 Run No. 7, 0.03 mM, control 2.5 ± 0.7): 6.8 ± 0.8%; Cells having neurites with a length at least twice the long diameter of cell/total number of cells ([1]; Table 3 Run No. 7, 0.5 mM, control 2.5 ± 0.7): 42.5 ± 1.8%; Cells having neurites with a length at least twice the long diameter of cell/total number of cells ([1]; Table 3 Run No. 7, 1 mM, control 2.5 ± 0.7): 57.2 ± 1.2%; Cells having neurites with a length at least twice the long diameter of cell/total number of cells ([1]; Table 3 second Run No. 5, 0.1 mM, control 4.5 ± 0.3): 16.2 ± 1.2% |
| Cc1nc(N2CCNCC2)nc2c1CC(=O)N2C [Compound 468] | – | – | – | – | > 1000 | 1/5 | Cells having neurites with a length at least twice the long diameter of cell/total number of cells ([1]; Table 3 Run No. 10, 0.3 mM, control 1.7 ± 0.7): 5.8 ± 0.8%; Cells having neurites with a length at least twice the long diameter of cell/total number of cells ([1]; Table 3 Run No. 10, 1 mM, control 1.7 ± 0.7): 15.7 ± 0.5% |
| CC(C)n1ccc2nc(N3CCNCC3)ncc2c1=O [Compound 713] | > 1000 | 0/5 | 0/5 | 2/5 | – | – | – |
| CCCCOc1ccnc(N2CCNCC2)n1 [Compound 128] | 300 to 550 | 0/5 | 3/5 | 4/5 | – | – | Cells having neurites with a length at least twice the long diameter of cell/total number of cells ([1]; Table 3 Run No. 1, 0.028 μM, control 2.2 ± 0.8): 4.4 ± 0.7%; Cells having neurites with a length at least twice the long diameter of cell/total number of cells ([1]; Table 3 Run No. 1, 0.29 μM, control 2.2 ± 0.8): 3.4 ± 0.6%; Cells having neurites with a length at least twice the long diameter of cell/total number of cells ([1]; Table 3 Run No. 1, 28 μM, control 2.2 ± 0.8): 5.2 ± 0.9% |
